Patent US9328122B2, “7-substituted Hanfangichin B derivative, and preparation method and use thereof” (HANGZHOU BENSHENG PHARMACEUTICAL CO., LTD., priority 2012, dated 2016)
Converted amounts (≈) assume the structure as drawn.

What was measured:
[1] = system: K562/ADR (K562adr, drug-resistant chronic myeloid leukemia) cells; test: MTT cell growth inhibition, leukemia cells; type: cell-based; details: Homo sapiens, K562/ADR, 72 h, MTT
Description: (§1) Leukemia cell lines: leukemia cell lines: K562adr (drug-resistant, chronic myeloid leukemia, CML), NB4 (acute promyelocytic leukemia, AML), Kasumi-1 (acute myeloid leukemia M2 type, AML-M2), Jurkat (acute lymphoblastic leukemia, ALL), all of which were donated by Cancer Research Institute of Zhejiang University, China; and H9 (acute lymphoblastic leukemia, ALL), which was purchased from China Center for Type Culture Collection.
(§2) Reagents: The standard sample of fangchinoline (FAN) was purchased from Ci Yuan Biotechnology Co., Ltd., Shaanxi, China; and the 7-substituted fangchinoline derivatives according to the present invention.
(§3) 6000 well-growing leukemia cells were obtained and inoculated into wells of a 96-well cell culture plate. The culture medium was a RPMI-1640 cell culture medium containing 10% fetal bovine serum. After adding the 7-substituted fangchinoline derivatives of different concentrations the next day and mixing uniformly, the plate was placed in a carbon dioxide cell incubator (5% CO2) at 37° C. and incubating for 72 hours. Then the viable cell concentration was determined by the MTT method.

[2] = system: NB4 (acute promyelocytic leukemia) cells; test: MTT cell growth inhibition, leukemia cells; type: cell-based; details: Homo sapiens, NB4, 72 h, MTT
Description: as §1, §2, §3

[3] = system: H9 (acute lymphoblastic leukemia) cells; test: MTT cell growth inhibition, leukemia cells; type: cell-based, human; details: Homo sapiens, H9, 72 h, MTT
Description: as §1, §2, §3

[4] = system: Jurkat (acute lymphoblastic leukemia) cells; test: MTT cell growth inhibition, leukemia cells; type: cell-based, human; details: Homo sapiens, Jurkat, 72 h, MTT
Description: as §1, §2, §3

[5] = system: Kasumi-1 (acute myeloid leukemia M2 type) cells; test: MTT cell growth inhibition, leukemia cells; type: cell-based, human; details: Homo sapiens, Kasumi-1, 72 h, MTT
Description: as §1, §2, §3

[6] = system: RPMI 8226 (multiple myeloma) cells; test: MTT cell growth inhibition, multiple myeloma cells; type: cell-based, human; details: Homo sapiens, RPMI 8226, 72 h, MTT
Procedure: Myeloma cell lines: RPMI8226 (multiple myeloma), purchased from Fuxiang Bio-tech Co. Ltd., Shanghai, China.
as §3, with “well-growing” for “well-growing leukemia”, “incubated” for “incubating”

[7] = system: CNE (nasopharyngeal carcinoma) cells; test: MTT cell growth inhibition, solid tumor cells; type: cell-based, human; details: Homo sapiens, CNE, 72 h, MTT
Description: (§4) Hep-2 (laryngeal carcinoma), A549 (human lung cancer), CaES-17 (esophageal cancer cell), PC-3 (prostate cancer), CNE (nasopharyngeal carcinoma cell) and SK-OV-3 (ovarian cancer cell), all of which were purchased from China Center For Type Culture Collection; RKO (human colon adenocarcinoma cell), MGC-803 (human gastric cancer cell), MG-63 (osteosarcoma), and U87-MG (malignant glioma cell), all of which were purchased from Fuxiang Bio-tech Co. Ltd., Shanghai, China; PANC-1 (pancreatic cancer), Becap37 (human breast cancer cell), Hela (human cervical cancer cell) and Hep G2 (human liver cancer cell), all of which were donated by Cancer Research Institute of Zhejiang University, China.
as §3, with “human solid tumor” for “leukemia”, “DMEM High Glucose” for “a RPMI-1640”, “serum. The plate was placed in a carbon dioxide cell incubator (5% CO2) at 37° C. and incubated for 24 hours.” for “serum.”, “added with” for “adding the”, “concentration” for “concentrations the next day”, “incubated” for “incubating”

[8] = system: CaEs-17 (esophageal cancer) cells; test: MTT cell growth inhibition, solid tumor cells; type: cell-based, human; details: Homo sapiens, CaEs17, CaEs-17, 72 h, MTT
Description: as §4
as §3, with “human solid tumor” for “leukemia”, “DMEM High Glucose” for “a RPMI-1640”, “serum. The plate was placed in a carbon dioxide cell incubator (5% CO2) at 37° C. and incubated for 24 hours.” for “serum.”, “added with” for “adding the”, “concentration” for “concentrations the next day”, “incubated” for “incubating”

[9] = system: PANC-1 (pancreatic cancer) cells; test: MTT cell growth inhibition, solid tumor cells; type: cell-based, human; details: Homo sapiens, PANC-1, 72 h, MTT
Description: as §4
as §3, with “human solid tumor” for “leukemia”, “DMEM High Glucose” for “a RPMI-1640”, “serum. The plate was placed in a carbon dioxide cell incubator (5% CO2) at 37° C. and incubated for 24 hours.” for “serum.”, “added with” for “adding the”, “concentration” for “concentrations the next day”, “incubated” for “incubating”

[10] = system: PC-3 (prostate cancer) cells; test: MTT cell growth inhibition, solid tumor cells; type: cell-based, human; details: Homo sapiens, PC-3, 72 h, MTT
Description: as §4
as §3, with “human solid tumor” for “leukemia”, “DMEM High Glucose” for “a RPMI-1640”, “serum. The plate was placed in a carbon dioxide cell incubator (5% CO2) at 37° C. and incubated for 24 hours.” for “serum.”, “added with” for “adding the”, “concentration” for “concentrations the next day”, “incubated” for “incubating”

[11] = system: SK-OV-3 (ovarian cancer) cells; test: MTT cell growth inhibition, solid tumor cells; type: cell-based, human; details: Homo sapiens, SK-OV-3, 72 h, MTT
Description: as §4
as §3, with “human solid tumor” for “leukemia”, “DMEM High Glucose” for “a RPMI-1640”, “serum. The plate was placed in a carbon dioxide cell incubator (5% CO2) at 37° C. and incubated for 24 hours.” for “serum.”, “added with” for “adding the”, “concentration” for “concentrations the next day”, “incubated” for “incubating”

[12] = system: Becap-37 (human breast cancer) cells; test: MTT cell growth inhibition, solid tumor cells; type: cell-based; details: Homo sapiens, Becap-37, 72 h, MTT
Description: as §4
as §3, with “human solid tumor” for “leukemia”, “DMEM High Glucose” for “a RPMI-1640”, “serum. The plate was placed in a carbon dioxide cell incubator (5% CO2) at 37° C. and incubated for 24 hours.” for “serum.”, “added with” for “adding the”, “concentration” for “concentrations the next day”, “incubated” for “incubating”

[13] = system: Hela (human cervical cancer) cells; test: MTT cell growth inhibition, solid tumor cells; type: cell-based; details: Homo sapiens, Hela, 72 h, MTT
Description: as §4
as §3, with “human solid tumor” for “leukemia”, “DMEM High Glucose” for “a RPMI-1640”, “serum. The plate was placed in a carbon dioxide cell incubator (5% CO2) at 37° C. and incubated for 24 hours.” for “serum.”, “added with” for “adding the”, “concentration” for “concentrations the next day”, “incubated” for “incubating”

[14] = system: Hep G2 (human liver cancer) cells; test: MTT cell growth inhibition, solid tumor cells; type: cell-based; details: Homo sapiens, HepG2, Hep G2, 72 h, MTT
Description: as §4
as §3, with “human solid tumor” for “leukemia”, “DMEM High Glucose” for “a RPMI-1640”, “serum. The plate was placed in a carbon dioxide cell incubator (5% CO2) at 37° C. and incubated for 24 hours.” for “serum.”, “added with” for “adding the”, “concentration” for “concentrations the next day”, “incubated” for “incubating”

[15] = system: MG-63 (osteosarcoma) cells; test: MTT cell growth inhibition, solid tumor cells; type: cell-based; details: Homo sapiens, MG-63, 72 h, MTT
Description: as §4
as §3, with “human solid tumor” for “leukemia”, “DMEM High Glucose” for “a RPMI-1640”, “serum. The plate was placed in a carbon dioxide cell incubator (5% CO2) at 37° C. and incubated for 24 hours.” for “serum.”, “added with” for “adding the”, “concentration” for “concentrations the next day”, “incubated” for “incubating”

[16] = system: MGC-803 (human gastric cancer) cells; test: MTT cell growth inhibition, solid tumor cells; type: cell-based; details: MGC-803, 72 h, MTT
Description: as §4
as §3, with “human solid tumor” for “leukemia”, “DMEM High Glucose” for “a RPMI-1640”, “serum. The plate was placed in a carbon dioxide cell incubator (5% CO2) at 37° C. and incubated for 24 hours.” for “serum.”, “added with” for “adding the”, “concentration” for “concentrations the next day”, “incubated” for “incubating”

[17] = system: RKO (human colon adenocarcinoma) cells; test: MTT cell growth inhibition, solid tumor cells; type: cell-based; details: Homo sapiens, RKO, 72 h, MTT
Description: as §4
as §3, with “human solid tumor” for “leukemia”, “DMEM High Glucose” for “a RPMI-1640”, “serum. The plate was placed in a carbon dioxide cell incubator (5% CO2) at 37° C. and incubated for 24 hours.” for “serum.”, “added with” for “adding the”, “concentration” for “concentrations the next day”, “incubated” for “incubating”

tumor = test: Antitumor activity compared with fangchinoline, overall statement; type: cell-based; details: tumor type not specified

IC50 ([1]; read-out: IC50): 0.38 µg/mL (≈ 0.517 µM) | IC90 ([1]; read-out: IC90): 1.92 µg/mL (≈ 2.61 µM) | IC50 ([2]; read-out: IC50): 0.39 µg/mL (≈ 0.531 µM) | IC90 ([2]; read-out: IC90): 2.57 µg/mL (≈ 3.5 µM) | IC50 ([3]; read-out: IC50): 2.2 µg/mL (≈ 2.99 µM) | IC90 ([3]; read-out: IC90): 3.7 µg/mL (≈ 5.04 µM) | IC50 ([4]; read-out: IC50): 2.23 µg/mL (≈ 3.03 µM) | IC90 ([4]; read-out: IC90): 3.86 µg/mL (≈ 5.25 µM) | IC50 ([5]; read-out: IC50): 1.29 µg/mL (≈ 1.76 µM) | IC90 ([5]; read-out: IC90): 3.16 µg/mL (≈ 4.3 µM) | IC50 ([6]; read-out: IC50): 0.42 µg/mL (≈ 0.572 µM) | IC90 ([6]; read-out: IC90): 1.58 µg/mL (≈ 2.15 µM) | IC50 ([7]; read-out: IC50): 2.7 µg/mL (≈ 3.67 µM) | IC90 ([7]; read-out: IC90): 5.2 µg/mL (≈ 7.08 µM) | IC50 ([8]; read-out: IC50): 4.6 µg/mL (≈ 6.26 µM) | IC90 ([8]; read-out: IC90): 14.5 µg/mL (≈ 19.8 µM) | IC50 ([9]; read-out: IC50): 2.23 µg/mL (≈ 3.03 µM) | IC90 ([9]; read-out: IC90): 6.85 µg/mL (≈ 9.32 µM) | IC50 ([10]; read-out: IC50): 3.8 µg/mL (≈ 5.17 µM) | IC90 ([10]; read-out: IC90): 6.39 µg/mL (≈ 8.7 µM) | IC50 ([11]; read-out: IC50): 12.2 µg/mL (≈ 16.6 µM) | IC90 ([11]; read-out: IC90): 16 µg/mL (≈ 21.8 µM) | IC50 ([12]; read-out: IC50): 4.87 µg/mL (≈ 6.63 µM) | IC90 ([12]; read-out: IC90): 7.89 µg/mL (≈ 10.7 µM) | IC50 ([13]; read-out: IC50): 0.5 µg/mL (≈ 0.68 µM) | IC90 ([13]; read-out: IC90): 1 µg/mL (≈ 1.36 µM) | IC50 ([14]; read-out: IC50): 3.73 µg/mL (≈ 5.08 µM) | IC90 ([14]; read-out: IC90): 7.96 µg/mL (≈ 10.8 µM) | IC50 ([15]; read-out: IC50): 2.6 µg/mL (≈ 3.54 µM) | IC90 ([15]; read-out: IC90): 3.5 µg/mL (≈ 4.76 µM) | IC50 ([16]; read-out: IC50): 2.94 µg/mL (≈ 4 µM) | IC90 ([16]; read-out: IC90): 8.5 µg/mL (≈ 11.6 µM) | IC50 ([17]; read-out: IC50): 1.66 µg/mL (≈ 2.26 µM) | IC90 ([17]; read-out: IC90): 2.95 µg/mL (≈ 4.01 µM)
Compound: COc1ccc2cc1Oc1ccc(cc1)C[C@H]1c3cc(c(OC)cc3CCN1C)Oc1c(OCc3cccc(F)c3F)c(OC)cc3c1[C@H](C2)N(C)CC3 [BS-FC-204]
antitumor activity compared with that of fangchinoline (tumor): significantly superior
